# According to patent US20260041660A1 (priority 2020, published 2026):
# Assays:
# [1] = tested on: MAPK and JAK; assay: TPA pro-apoptotic effects via immune-regulatory kinases; assay type: cell-based; conditions: through interactions with MAPK and JAK
# Text: (§1) The instant disclosure, in conjunction with ongoing pilot studies by the inventors, illustrates a wide range of pro-immune and anti-inflammatory effects of TPA that will potently mediate reduction and/or prevention of ARDS conditions and symptoms, as well as other pathogenic conditions and symptoms associated with severe COVID-19 disease. […] Exemplary pilot studies have shown that TPA compounds will effectively treat and prevent lymphocytopenia, by virtue that these compounds promote full range of pro-immune effects relating to activation, proliferation and survival of lymphocytes. […] Neutrophils are evidently “hijacked” and reprogrammed by SARS-COV-2 proteins (and other emergent pro-inflammatory factors that emerge in the course of COVID-19 disease development), leading to profound dysregulation of neutrophil immune and inflammatory activities. […]
# [2] = tested on: PKC; assay: Inventors' studies: TPA effect on PKC; assay type: biochemical
# Text: (§2) More complex effects of TPA on MAPK pathways involve TPA regulation of immune cell differentiation and apoptosis.
# [3] = tested on: peripheral blood lymphocytes (predominantly T-cells); assay: Pilot studies: effect of TPA on peripheral blood lymphocytes; assay type: cell-based
# Text: In addition to minimizing hyper-inflammatory activities of macrophages and neutrophils, TPA compositions and methods of the invention mediate protection of lymphocytes (prolongation of lifespan), and also directly stimulate lymphocyte proliferation and differentiation. […] This activity will protect and expand lymphocyte numbers, which in turn will mediate potent anti-viral effects.
# as §1
# [4] = assay type: in vivo, C57Bl/6 mouse
# [5] = tested on: MAPK; assay: Inventors' studies: TPA effect on MAPK hyper-stimulation; assay type: cell-based; conditions: reduced MAPK activation and phosphorylation activity
# Text: as §2
# [6] = tested on: IL-6; conditions: in vitro and in vivo; Stat3, Akt, ERK1/2 pathways; cited from earlier work
# [7] = tested on: murine peritoneal macrophages; conditions: via suppression of ERK1/2 signaling; cited from earlier work
# [8] = polar organic solvents and water; cited from earlier work
# [9] = tested on: HIN1; conditions: reducing infiltration of inflammatory cells, inhibiting pro-inflammatory cytokines; cited from earlier work
# [10] = tested on: SARS-COV-2; conditions: recent in vitro studies; cited from earlier work
# [11] = tested on: SARS-COV-2; conditions: after 48 h of infection with SARS-COV-2; cited from earlier work
# [12] = tested on: COVID-19; conditions: human, in vivo; cited from earlier work
molecule,measurement,setting,value
"CCCCCCCCCCCCCC(=O)O[C@@H]1[C@H](C)[C@@]2(O)[C@@H](C=C(CO)C[C@]3(O)C(=O)C(C)=C[C@@H]23)[C@@H]2C(C)(C)[C@]12OC(C)=O (stereo in doubt) [TPA, 12-O-tetradecanoylphorbol-13-acetate]",apoptotic effects,[1],pro-apoptotic effects
same,effect on PKC,[2],"not only activates, but stabilizes PKC"
same,mitogenic effect on peripheral blood lymphocytes,[3],"direct, clinically effective mitogenic effect"
same,TNFα content in BALF samples,[4]; 48 hrs,reduction of TNFα content
same,protein extravasation in BALF samples,[4]; 48 hrs,reduction of protein extravasation in BALF samples
same,ROS generation of lavaged neutrophils,[4]; after 48 hours,significant reduction in ROS generation
same,BALF WBC ROS production,"[4]; mouse, in vivo",significantly lower
same,LPS-induced EBD extravasation,"[4]; mouse, in vivo",suppression of LPS-induced EBD extravasation
same,"hyper-elevation of IL-6, IL-10, TNFα, MIP2 and other pro-inflammatory cytokines","[4]; mouse, in vivo",block or reduce hyper-elevation
same,monocyte/macrophage and neutrophil counts,"[4]; mouse, in vivo",reduction in monocyte/macrophage and neutrophil counts
same,neutrophil and RBC into pulmonary interstitial spaces and alveolar airspaces,"[4]; mouse, in vivo",marked reduction in neutrophil and RBC
same,presence of neutrophils in BALF,"[4]; mouse, in vivo",significantly reduced
same,swelling of the alveolar walls,"[4]; mouse, in vivo",reduced swelling of the alveolar walls
same,histopathologic changes of the lung,"[4]; mouse, in vivo, iv",markedly suppressed
same,MAPK hyper-stimulation,[5],clinically beneficial reduction in MAPK hyper-stimulation
C=C1CC[C@@H]2[C@](C)(CO)[C@H](O)CC[C@@]2(C)[C@@H]1C/C=C1/C(=O)OC[C@H]1O [Andrographolide],IL-6 production and IL-6 hyper-inflammatory signaling,[6],inhibits IL-6 production and suppresses IL-6 hyper-inflammatory signaling in a dose-dependent manner
same,production of TNF-α and interleukin-12,[7],inhibits the production of TNF-α and interleukin-12
CC1=C[C@H]2[C@@]3(O)[C@H](C)[C@@H](O)[C@]4(O)[C@H]([C@@H]3C=C(CO)C[C@]2(O)C1=O)C4(C)C [Phorbol],solubility,[8],well soluble in most polar organic solvents and in water
O=C1CCC(N2C(=O)c3ccccc3C2=O)C(=O)N1 (stereo not shown) [Thalidomide],treatment of infected mice,[9],effective in treating HIN1-infected mice
CCN(CCO)CCCC(C)Nc1ccnc2cc(Cl)ccc12 (stereo not shown) [hydroxychloroquine],viral load/titer of SARS-COV-2,[10],effectively reduces viral load/titer of SARS-COV-2
Ivermectin,reduce viral RNA,[11],"up to 5,000 fold"
TCZ: recombinant human anti-IL-6 monoclonal antibody that binds soluble and membrane-bound IL-6 receptors,fever and other ARDS symptoms,[12],reduces fever and other ARDS symptoms
same,patients with opacity lung lesion on CT scans absorbed,[12],90.5%
same,patients with peripheral lymphocyte levels returned to normal,[12],52.6%
same,treated subjects showing improved oxygenation,[12],75.0%
